Measured values published in US20260151457A1, “Peptides and Fragments for Treating Diabetes and Associated Metabolic Diseases” (Betavive Ltd., priority 2024, published 2026).
Where no end group is shown, it is not given here.

Experiments:
[1] = tested on: mice; assay: Blood glucose concentration kinetics of IGF-2 vs. insulin in a glucose tolerance test; type: in vivo
Experimental: IGF-2 therefore provides an effect that mimics insulin within the body, and that effect is referred to herein as an “insulinomimetic” effect. […] More specifically, when 1 unit of insulin per kg was administered, the recovery in glucose levels began after two hours. But when 800 μg/kg of IGF-2 was administered, the recovery in glucose levels began after six hours. […] In this example, administering IGF-2 can provide better results than administering insulin with respect to blood glucose levels, even when only a single dose was used. Without being bound by this theory, it is possible that the IGF-2 combines with a number of binding proteins in the blood and its active free form is then released slowly from the complex.

[2] = tested on: β-MIN6 cells; assay: Insulin secretion of β-MIN6 cells following glucose induction; type: cell-based, mouse; conditions: IGF-2 5 nM, 20 nM, 80 nM, 1 week treatment
From the text: β-MIN6 cells serve as an in vitro model of mouse pancreatic islets. β-MIN6 cells were used as an in vitro model to measure the effects of treatment with IGF-2.

[3] = tested on: STZ-treated mouse islets; assay: MTT viability of STZ-treated mouse islets; type: cell-based; conditions: increasing concentrations
From the text: Yellow dye MTT is converted to a purple dye by mitochondrial reductase in viable cells. Therefore, the amount of purple dye present determined by measuring optical density of cells at 570 nm serves as a measurement of cell viability.

[4] = tested on: STZ-treated mouse islets; assay: Insulin secretion from STZ-treated mouse islets; type: cell-based; conditions: islets treated with 2.5 mM STZ; IGF-2 50 nM and 500 nM, GLP-1 100 nM and 1000 nM; 48 hours
Experimental: Mouse islet cells were treated with 2.5 mM STZ and subsequently treated with either IGF-2 (FA) at 50 nM and 500 nM, or with GLP-1 at 100 nM and 1000 nM.

[5] = tested on: db/db mice; assay: Peptide efficacy on type 2 diabetes (db/db mice): pancreas H&E and IHC; type: in vivo
Experimental: Male db/db mice (BKS.Cg-Dock7m+/+Leprdb/J) were administered Peptide 16 and Peptide 20 via intraperitoneal injection once daily for 35 consecutive days. Peptide 16 was administered at a dose of 5.5 mg/kg, while Peptide 20 was administered at 3.9 mg/kg. The control group received saline. Throughout the treatment period, mice were monitored for body weight and behavioral changes. At the end of the study, mice were sacrificed, and blood samples were collected for C-peptide level measurement. The pancreas was harvested for pathological analysis, including hematoxylin and eosin (H&E) staining and immunohistochemistry (IHC). Results appear in FIG. 37. All pancreatic tissue sections were stained with hematoxylin and eosin (H&E). […] Results appear in FIG. 38.

[6] = tested on: Human pancreatic islets; assay: Peptides efficacy on human pancreatic islets (IHC, digital quantitative pathological analysis); type: cell-based
Experimental: Human pancreatic islets, obtained from Prodo Labs, were cultured in Prodo Labs PIM(S) media and maintained at 37° C. with 5% CO2 to ensure optimal viability. The islets were treated with IGF-2 (500 nM) and Peptide-20 (1000 nM) for five days under continuous exposure. After treatment, islets were collected and fixed in 4% paraformaldehyde (PFA) to preserve cellular and structural integrity. The samples were then processed for formalin-fixed paraffin-embedded (FFPE) histology. Sectioned islets were stained using immunohistochemistry (IHC) with specific markers to assess islet integrity, β-cell function, and proliferation. Microscopic Digital Quantitative Pathological Analysis provided critical insights into the effects of IGF-2 and Peptide-20 on islet structure and function. […] These findings establish Peptide-20 as a strong candidate for novel diabetes therapies aimed at restoring islet function and reversing β-cell loss. […] Their ability to enhance β-cell survival and proliferation positions them as strong candidates for the development of novel regenerative therapies, paving the way for innovative drug development aimed at reversing diabetes and restoring endogenous insulin production.

[7] = Peptide-20 1000 nM for five days

insulin [reference compound]
Glucose level after administration ([1]; glucose tolerance test in mice): decreased
Time after which the recovery in glucose levels began ([1]; insulin 1 unit per kg, IGF-2 800 μg/kg, single dose): two

GLP-1 (HAEGTFTSDVSSYLEGQAAKEFIAWLVKGR; ends and bridges not checked; UniProt P01275 98-127, looked up) [a satiety hormone, comparator in vitro, reference compound]
Insulin secretion following glucose induction [2]: does not increase insulin secretion
Mouse islet viability (MTT, optical density at 570 nm) [3]: did not significantly increase mouse islet viability
Insulin secretion [4]: did not significantly increase insulin secretion

RSRGIVEECCFRICDLALLE [Peptide 20]
Islets of Langerhans in the pancreas (IHC) ([5]; Peptide 20 3.9 mg/kg i.p. once daily for 35 days): regenerating the islets of Langerhans
Islets of Langerhans in pancreatic tissue sections (H&E) ([5]; i.p. once daily for 35 days, Peptide 16 5.5 mg/kg, Peptide 20 3.9 mg/kg): regenerating the islets of Langerhans
Pancreatic islet regeneration, integrity and function ([6]; IGF-2 500 nM, Peptide-20 1000 nM, five days): enhances human pancreatic islet regeneration and function
Islet area [6, 7]: significant increase
Total insulin signal intensity [6, 7]: significant increase
β-cell proliferation [6, 7]: significant increase
